Where two headings read alike, the source gives them in different places. Where a SMILES comes first, the peptide text is derived from it. Bridges are numbered along the chain shown (N, C = ends).
How the values were obtained:
[1] = molecular target: T1, Bovine pancreatic trypsin (Bos taurus, UniProt P00760); assay: Trypsin inhibition assay (substrate-independent Ki); type: biochemical; conditions: substrate-independent Ki from Ki app (Morrison equation) and Km; 250 µM substrate; preincubation 30 min RT; read over 30 min; triplicate
T1 construct: purchased Sigma-Aldrich
T1 sequence (P00760 24-246): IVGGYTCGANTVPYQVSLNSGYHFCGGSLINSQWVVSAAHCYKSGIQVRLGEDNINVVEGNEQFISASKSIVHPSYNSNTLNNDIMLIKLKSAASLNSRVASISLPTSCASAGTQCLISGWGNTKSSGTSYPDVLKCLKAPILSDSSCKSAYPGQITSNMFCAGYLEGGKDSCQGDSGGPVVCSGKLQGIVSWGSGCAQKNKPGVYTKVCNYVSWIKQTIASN
Experimental: Bovine pancreatic trypsin, thrombin and uPA were purchased from Sigma-Aldrich and Hepsin from R&D Systems.
Measurements were carried out in triplicate using a Tecan Genios ELISA reader. The normalized residual proteolytic activity (v/v0) of proteases was determined using substrates Boc-QAR-pNA (250 µM, (pNA stands for para-nitro aniline), Boc-QAR-AMC (250 µM, AMC stands for amino-methyl coumarin) or Spectrozym tPA (250 µM, American Diagnostica, CH3SO2-D-CHT-Gly-Arg-pNA AcOH). Product formation was monitored after preincubation (30 min, RT) with inhibitor at different concentrations over 30 min by measuring the absorbance at 405 nm for pNA substrates or the fluorescence emission for AMC substrates (ex. 360 nm, em. 465 nm), respectively. Selectivity data were carried out in duplicates with final protease concentrations of uPA and thrombin of 5 nM. In case of hepsin 50 mM Tris/HCl pH 9.0 was used as assay buffer.
(§1) Apparent inhibition constants (Ki ^app) were calculated by fitting the Morrison equation (1) for tight-binding inhibitors to the relative reaction velocity using non-linear regression (Marquardt-Levenberg algorithm, Sigma Plot 11) [63].
(§2) Substrate-independent inhibition constants Ki were calculated from Ki ^app and Km of the enzyme according to (2).

Human matriptase-1 = molecular target: T2, Human matriptase-1 (Homo sapiens, UniProt Q9Y5Y6); assay: Matriptase-1 inhibition assay (Ki / Ki app); type: biochemical
T2 construct: made in house
T2 sequence (Q9Y5Y6 615-855 limits assumed): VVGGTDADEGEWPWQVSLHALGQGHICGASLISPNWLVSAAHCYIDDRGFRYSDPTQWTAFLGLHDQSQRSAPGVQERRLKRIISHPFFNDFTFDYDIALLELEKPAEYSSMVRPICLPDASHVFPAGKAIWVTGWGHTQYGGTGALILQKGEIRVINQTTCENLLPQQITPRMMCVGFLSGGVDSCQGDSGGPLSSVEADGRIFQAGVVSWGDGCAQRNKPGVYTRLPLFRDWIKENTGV
Experimental: Human matriptase-1 was produced recombinantly, autocatalytically activated and purified as previously reported [35], [49], [51], [60].
Measurements were carried out in triplicate using a Tecan Genios ELISA reader.
as §1, §2

[2] = tested on: uPA activation by matriptase-1 on the surface of PC-3 cells; assay: Cell inhibition assay: uPA activation by matriptase-1 on the surface of PC-3 cells; type: cell-based, human; conditions: control, concentration of 10 µM
Experimental: Human prostate cancer cells (PC-3, Merck KGaA) were cultured in DMEM medium with 10% FCS at 37°C and 5% CO2, washed with cation-free PBS and harvested by scraping. 1×10^5 cells were incubated in presence of 250 µM Bz-β-Ala-Gly-Arg-pNA·AcOH (American Diagnostica), which is a specific […] of urokinase, and the inhibitor of interest in defined dilutions overnight. Product formation was monitored at 405 nm before and after incubation in a microplate reader. IC50 was calculated by non-linear regression using SigmaPlot 11.
Urokinase-type plasminogen activator (uPA) causes the degradation of the extracellular matrix and plays a critical role in tumor invasion and metastasis, [73]. It was shown that activation of receptor-bound pro-uPA is affected by matriptase-1, which results in a decreased ability of uPAexpressing tumor cells to invade an extracellular matrix layer upon inhibition of membrane-bound matriptase-1 [72].
For the indirect determination of the IC50 of SOTI Var. 1 and MCoTI Var. 4 on the surface of these cancer cells, the turnover of an uPA substrate was monitored. Pro-uPA is activated through non-inhibited matriptase-1 and substrate turnover was measured and compared to the previously reported small molecule inhibitor S1 of matriptase-1 (Figure 4). In this experimental setting, the MCoTI-based inhibitor Var. […] 4 in this assay.
Figure 4 Inhibition assay of uPA activation by matriptase-1 on the surface of PC-3 cells. Depicted is the logarithmic inhibitor concentration against the absorption at 405 TEXT PRINTED IN THE PICTURE: MCoTI Var.

[3] = substrate-independent Ki from Ki app (Morrison equation) and Km, 250 µM substrate, preincubation 30 min RT, read over 30 min, triplicate, read-out: Ki (Matriptase-1)
[4] = apparent inhibition constant (Morrison equation), MCoTI variants isolated from M. cochinchinensis seeds, oMCoTI-II synthetic, read-out: Kiapp towards matriptase-1

In the case of `CC[C@H](C)[C@H](N)C(=O)NCC(=O)N[C@H](C(=O)N[C@H]1CSSC[C@@H]2NC(=O)[C@H](C)NC(=O)CNC(=O)[C@@H]3CCCN3C(=O)[C@@H]3CSSC[C@@H](C(=O)NCC(N)=O)NC(=O)[C@H](Cc4ccc(O)cc4)NC(=O)CNC(=O)[C@H](CC(N)=O)NC(=O)CNC(=O)[C@H](CCCNC(=N)N)NC(=O)[C@H](CSSC[C@H](NC(=O)[C@H](C)NC(=O)[C@H](CCCNC(=N)N)NC(=O)[C@H](CC(C)C)NC(=O)[C@H](CC(C)C)NC(=O)[C@H](CCCCN)NC(=O)[C@@H]4CCCN4C1=O)C(=O)N[C@@H](CCCNC(=N)N)C(=O)N[C@@H](CCCNC(=N)N)C(=O)N[C@@H](CC(=O)O)C(=O)N[C@@H](CO)C(=O)N[C@@H](CC(=O)O)C(=O)N3)NC(=O)[C@H]([C@@H](C)CC)NC2=O)C(C)C` [MCoTI Var. 1] (H-IGVCPKLLRACRRDSDCPGACICRGNGYCG-NH2; disulfide 4-21, 11-23, 17-29), the Ki [1] is reported as 31.7 ± 4.3 nM and the Ki (Human matriptase-1; [3]) is reported as 4.4 ± 0.6 nM.

`CC[C@H](C)[C@@H]1NC(=O)[C@@H]2CSSC[C@H](NC(=O)[C@H](CCCNC(=N)N)NC(=O)[C@H](CCCNC(=N)N)NC(=O)[C@@H](N)CC(N)=O)C(=O)N3CCC[C@H]3C(=O)N[C@@H](CCCCN)C(=O)N[C@@H](C(C)C)C(=O)N[C@@H](CC(C)C)C(=O)N[C@@H](CCCCN)C(=O)N[C@@H](C)C(=O)N[C@H]3CSSC[C@H](NC1=O)C(=O)N[C@@H](CCCNC(=N)N)C(=O)NCC(=O)N[C@@H](CC(N)=O)C(=O)NCC(=O)N[C@@H](Cc1ccc(O)cc1)C(=O)N[C@H](C(=O)NCC(N)=O)CSSC[C@H](NC(=O)[C@H](CC(=O)O)NC(=O)[C@H](CO)NC(=O)[C@H](CC(=O)O)NC(=O)[C@H](CCCNC(=N)N)NC(=O)[C@H](CCCNC(=N)N)NC3=O)C(=O)N1CCC[C@H]1C(=O)NCC(=O)N[C@@H](C)C(=O)N2` [MCoTI Var. 2] was tested, and the Ki [1] was 19.2 ± 2.8 nM and the Ki (Human matriptase-1; [3]) was 3.3 ± 0.4 nM.

In the case of `CC[C@H](C)[C@@H]1NC(=O)[C@@H]2CSSC[C@@H]3NC(=O)[C@H](C(C)C)NC(=O)CNC(=O)CNC(=O)C[C@@H](C(=O)O)NC(=O)[C@H](CO)NC(=O)CNC(=O)[C@H](CO)NC(=O)CNC(=O)[C@@H]4CSSC[C@H](NC(=O)[C@H](CC(=O)O)NC(=O)[C@H](CO)NC(=O)[C@H](CC(=O)O)NC(=O)[C@H](CCCNC(=N)N)NC(=O)[C@H](CCCNC(=N)N)NC(=O)[C@H](CSSC[C@H](NC1=O)C(=O)N[C@@H](CCCNC(=N)N)C(=O)NCC(=O)N[C@@H](CC(N)=O)C(=O)NCC(=O)N[C@@H](Cc1ccc(O)cc1)C(=O)N4)NC(=O)[C@H](CCCCN)NC(=O)[C@H](CCCCN)NC(=O)[C@H](CC(C)C)NC(=O)[C@H]([C@@H](C)CC)NC(=O)[C@H](CCCCN)NC(=O)[C@@H]1CCCN1C3=O)C(=O)N1CCC[C@H]1C(=O)NCC(=O)N[C@@H](C)C(=O)N2` [MCoTI-II (ß-asp), reference compound] (GGVCPKILKKCRRDSDCPGACICRGNGYCGSGSD-OH; disulfide 4-21, 11-23, 17-29; lactam N-34), the Ki (Human matriptase-1; [4]) is reported as 388 ± 32 nM.

For `CC[C@H](C)[C@@H]1NC(=O)[C@H](C)NC(=O)CNC(=O)[C@H](CO)NC(=O)[C@@H]2CCCN2C(=O)[C@H](CO)NC(=O)[C@@H](NC(=O)[C@H](CCCCN)NC(=O)[C@H](CC(=O)O)NC(=O)[C@@H](N)CCC(=O)O)CSSC[C@@H]2NC(=O)[C@@H]3CSSC[C@@H](C(=O)N[C@@H](CCC(N)=O)C(=O)O)NC(=O)[C@H](CCCNC(=N)N)NC(=O)[C@H](Cc4c[nH]c5ccccc45)NC(=O)[C@H](CO)NC(=O)[C@H](CCCNC(=N)N)NC(=O)[C@H](C)NC(=O)[C@H](CCCNC(=N)N)NC(=O)[C@H](CCCNC(=N)N)NC(=O)[C@H](CC(N)=O)NC(=O)[C@H](CC(C)C)NC(=O)[C@H](C(C)C)NC(=O)[C@H](CSSC[C@H](NC1=O)C(=O)N[C@@H](CO)C(=O)NCC(=O)N[C@@H](Cc1ccccc1)C(=O)NCC(=O)N1CCC[C@H]1C(=O)N1CCC[C@H]1C(=O)N[C@@H](CCC(=O)O)C(=O)N[C@@H](CCC(N)=O)C(=O)N3)NC(=O)[C@H](C)NC(=O)CNC(=O)[C@H](CO)NC2=O` [SOTI Var. 1] (H-EDKCSPSGAICSGFGPPEQCCSGACVLNRRARSWRCQ-OH; disulfide 4-21, 11-25, 20-36), the Ki [1] was > 1000 nM, the “Ki (Trypsin)” value [1] was “total loss of trypsin inhibition” and the Ki (Human matriptase-1; [3]) was 28.9 ± 3.5 nM.

`CC[C@H](C)[C@@H]1NC(=O)[C@H](C)NC(=O)CNC(=O)[C@H](CO)NC(=O)[C@@H]2CCCN2C(=O)[C@H](CO)NC(=O)[C@@H](NC(=O)[C@H](CCCCN)NC(=O)[C@H](CC(=O)O)NC(=O)[C@@H](N)CCC(=O)O)CSSC[C@@H]2NC(=O)[C@@H]3CSSC[C@@H](C(=O)N[C@@H](CCC(N)=O)C(=O)O)NC(=O)[C@H](C(C)C)NC(=O)[C@H](Cc4ccccc4)NC(=O)[C@H]([C@@H](C)CC)NC(=O)[C@H](CCCNC(=N)N)NC(=O)[C@H](CC(C)C)NC(=O)[C@H]([C@@H](C)CC)NC(=O)[C@@H]4CCCN4C(=O)[C@H](Cc4c[nH]cn4)NC(=O)[C@@H]4CCCN4C(=O)[C@H](C(C)C)NC(=O)[C@H](CSSC[C@H](NC1=O)C(=O)N[C@@H](CO)C(=O)NCC(=O)N[C@@H](Cc1ccccc1)C(=O)NCC(=O)N1CCC[C@H]1C(=O)N1CCC[C@H]1C(=O)N[C@@H](CCC(=O)O)C(=O)N[C@@H](CCC(N)=O)C(=O)N3)NC(=O)[C@H](C)NC(=O)CNC(=O)[C@H](CO)NC2=O` [SOTI-III wt, Spinacia oleracea trypsin inhibitor III, reference compound] (H-EDKCSPSGAICSGFGPPEQCCSGACVPHPILRIFVCQ-OH; disulfide 4-21, 11-25, 20-36) was tested, and the Ki [1] was 60.6 ± 8.4 nM, the “Ki (Matriptase-1)” value (Human matriptase-1; substrate-independent Ki from Ki app (Morrison equation) and Km, 250 µM substrate, preincubation 30 min RT, read over 30 min, triplicate) was “did not display measurable inhibitory activity” and the Ki (Human matriptase-1; [3]) was > 1000 nM. The “inhibition of matriptase-1 or uPA in the PC-3 assay” value [2] was “no inhibition”.

For `CC[C@H](C)[C@@H]1NC(=O)[C@@H]2CSSC[C@H](NC(=O)[C@@H](NC(=O)CNC(=O)[C@@H](N)CO)C(C)C)C(=O)N3CCC[C@H]3C(=O)N[C@@H](CCCCN)C(=O)N[C@@H]([C@@H](C)CC)C(=O)N[C@@H](CC(C)C)C(=O)N[C@@H](CCCCN)C(=O)N[C@@H](CCCCN)C(=O)N[C@H]3CSSC[C@H](NC1=O)C(=O)N[C@@H](CCCNC(=N)N)C(=O)NCC(=O)N[C@@H](CC(N)=O)C(=O)NCC(=O)N[C@@H](Cc1ccc(O)cc1)C(=O)N[C@H](C(=O)NCC(N)=O)CSSC[C@H](NC(=O)[C@H](CC(=O)O)NC(=O)[C@H](CO)NC(=O)[C@H](CC(=O)O)NC(=O)[C@H](CCCNC(=N)N)NC(=O)[C@H](CCCNC(=N)N)NC3=O)C(=O)N1CCC[C@H]1C(=O)NCC(=O)N[C@@H](C)C(=O)N2` [oMCoTI-II, reference compound] (H-SGVCPKILKKCRRDSDCPGACICRGNGYCG-NH2; disulfide 4-21, 11-23, 17-29), the Ki (Human matriptase-1; [4]) was 276 ± 13 nM.
